# What was measured:
# [1] = test system: Caco-2/monocytes co-culture; assay: Multiplex xMAP cytokine production, Caco-2/monocytes co-culture; format: cell-based, human; settings: 24 h; for EGF level / Eotaxin level / FGF-2 level / FLT-3L level / Fractalkine level / G-CSF level / GM-CSF level / GROa level / IFNa2 level / IFNg level / IL-1RA level / IL-1a level / IL-1b level / IL-2 level / IL-3 level / IL-4 level / IL-5 level / IL-6 level / IL-7 level / IL-8 level / IL-9 level / IL-10 level / IL-12 (p40) level / IL-12 (p70) level / IL-13 level / IL-15 level / IL-17A level / IL-17E/IL-25 level / IL-17F level / IL-18 level / IL-22 level / IL-27 level / IP-10 level / M-GSF level / MCP-1 level / MCP-3 level / MDC level / MIG level / MIP-1a level / MIP-1b level / PDGF-AA level / PDGF-AB/BB level / RANTES level / TGF-a level / TNFa level / TNFb level / VEGFa level / sCD40L level: 2 µM apical, basolateral medium
# Description: The co-culture model consisted of immune cells (moDCs or monocytes) lying on the bottom of the culture well, and a Caco-2 polarized monolayer, mimicking intestinal epithelium, on a permeable insert. Immune cells were located on the serosal side of the epithelial barrier. In some inserts Candida albicans was loaded to the apical side of the epithelium, mimicking intestinal lumen colonization with this pathogenic fungus. This co-culture model allows yeast cells to contact only with the apical side of epithelial cells, but not with immune cells. Culture medium, containing cytokines, chemokines, and growth factors, produced by both epithelial and immune cells, was taken from basolateral chambers and analyzed by multiplex xMAP technology after incubation during 24 h when C. albicans cells switched to hyphal form.
# For growing cells, mimicking epithelial barriers in vitro, Caco-2 cells were seeded onto 24-well polycarbonate Millicell cell culture inserts (0.4 μm, 0.6 cm^2 surface area) (Millipore, Burlington, MA, USA), precoated with 0.2% bovine gelatin (Sigma-Aldrich), at a density of 2.5 × 10^5 cells/cm^2. The cells were grown for 21 days in a complete DMEM/F12 (1:1) medium with re-feeding every 2–3 days with a fresh complete medium. The integrity of the Caco-2 cell monolayer was checked by measuring the transepithelial electrical resistance (TEER) using a Millicell-ERS Voltohmmeter (Millipore). Only cell monolayers with TEER > 400 Ωcm^2 (after subtracting TEER in blank inserts without Caco-2 cells) were used in transport across epithelial monolayer and cytokine production experiments.
# Monocytes and moDCs were seeded into the wells of 48- and 24-well plates in the complete RPMI-1640 medium supplemented with 10% human AB serum (HABS, Capricorn Scientific) without antibiotics 24 h prior to the experiment, and kept in a humidified CO2-incubator (5% CO2, 37 °C). After 24 h, the medium in the wells of the 48-well plate was replaced by fresh complete RPMI-1640 medium with 10% HABS, supplemented with 2 µM of Psd1 for the sample wells or fresh medium alone for the control wells. Medium in the wells of the 24-well plate was replaced by fresh complete RPMI-1640 medium with 10% human serum without antibiotics. Then, Millicell inserts with Caco-2 monolayers with TEER > 400 Ωcm^2 were placed into the wells of the 24-well plate, containing monocytes or moDCs. Wells with Millicell inserts with Caco-2 monolayers without immune cells were used as control wells. Medium in apical chambers of Millicell inserts was replaced by fresh complete RPMI-1640 with 10% human serum medium containing Psd1 at the final concentration of 2 µM or Candida albicans at the concentration of 5 × 10^4 cells/mL or yeast cells together with the pea defensin at the same concentration. Fresh complete RPMI-1640 medium only with 10% human serum and without antibiotics was used in control wells. Plates were kept in CO2-incubator (5% CO2, 37 °C) for another 24 h. Culture supernatants from the wells of the 48-well plate and basolateral chambers of the 24-well plate were collected and stored at −70 °C degrees less than one month prior to the analytes assessment. […]
# Candida albicans enzymes = settings: cited from earlier work
# [2] = Caco-2/monocytes co-culture with C. albicans, 2 μM
substance,measurement,setting,value
"Psd1: pea defensin from Pisum sativum (UNIPROT P81929), recombinant peptide overexpressed in Escherichia coli (KTCEHLADTYRGVCFTNASCDDHCKNKAHLISGTCHNWKCFCTQNC; UniProt P81929 1-46, looked up)",EGF level,[1]; Caco-2/Mono+Candida+Psd1,7 pg/mL
same,Eotaxin level,[1]; Caco-2/Mono+Candida+Psd1,4.44 pg/mL
same,FGF-2 level,[1]; Caco-2/Mono+Candida+Psd1,47.02 pg/mL
same,FLT-3L level,[1]; Caco-2/Mono+Candida+Psd1,0.83 pg/mL
same,Fractalkine level,[1]; Caco-2/Mono+Candida+Psd1,27.26 pg/mL
same,G-CSF level,[1]; Caco-2/Mono+Candida+Psd1,63.23 pg/mL
same,GM-CSF level,[1]; Caco-2/Mono+Candida+Psd1,2.65 pg/mL
same,GROa level,[1]; Caco-2/Mono+Candida+Psd1,1596 pg/mL
same,IFNa2 level,[1]; Caco-2/Mono+Candida+Psd1,15.36 pg/mL
same,IFNg level,[1]; Caco-2/Mono+Candida+Psd1,<2.23↓ pg/ml
same,IL-1RA level,[1]; Caco-2/Mono+Candida+Psd1,7.97 pg/mL
same,IL-1a level,[1]; Caco-2/Mono+Candida+Psd1,29.04 pg/mL
same,IL-1b level,[1]; Caco-2/Mono+Candida+Psd1,26.83 pg/mL
same,IL-2 level,[1]; Caco-2/Mono+Candida+Psd1,<0.95↓ pg/ml
same,IL-3 level,[1]; Caco-2/Mono+Candida+Psd1,<0.60↓ pg/ml
same,IL-4 level,[1]; Caco-2/Mono+Candida+Psd1,3.07 pg/mL
same,IL-5 level,[1]; Caco-2/Mono+Candida+Psd1,<0.30↓ pg/ml
same,IL-6 level,[1]; Caco-2/Mono+Candida+Psd1,631.32 pg/mL
same,IL-7 level,[1]; Caco-2/Mono+Candida+Psd1,<0.38↓ pg/ml
same,IL-8 level,[1]; Caco-2/Mono+Candida+Psd1,8138 pg/mL
same,IL-9 level,[1]; Caco-2/Mono+Candida+Psd1,6.07 pg/mL
same,IL-10 level,[1]; Caco-2/Mono+Candida+Psd1,4.47 pg/mL
same,IL-12 (p40) level,[1]; Caco-2/Mono+Candida+Psd1,25.99 pg/mL
same,IL-12 (p70) level,[1]; Caco-2/Mono+Candida+Psd1,<1.68↓ pg/ml
same,IL-13 level,[1]; Caco-2/Mono+Candida+Psd1,25.38 pg/mL
same,IL-15 level,[1]; Caco-2/Mono+Candida+Psd1,1.44 pg/mL
same,IL-17A level,[1]; Caco-2/Mono+Candida+Psd1,2.9 pg/mL
same,IL-17E/IL-25 level,[1]; Caco-2/Mono+Candida+Psd1,<18.85↓ pg/ml
same,IL-17F level,[1]; Caco-2/Mono+Candida+Psd1,<19.03↓ pg/ml
same,IL-18 level,[1]; Caco-2/Mono+Candida+Psd1,3.62 pg/mL
same,IL-22 level,[1]; Caco-2/Mono+Candida+Psd1,24.13 pg/mL
same,IL-27 level,[1]; Caco-2/Mono+Candida+Psd1,63.98 pg/mL
same,IP-10 level,[1]; Caco-2/Mono+Candida+Psd1,35.99 pg/mL
same,M-GSF level,[1]; Caco-2/Mono+Candida+Psd1,34.31 pg/mL
same,MCP-1 level,[1]; Caco-2/Mono+Candida+Psd1,9510 pg/mL
same,MCP-3 level,[1]; Caco-2/Mono+Candida+Psd1,273.49 pg/mL
same,MDC level,[1]; Caco-2/Mono+Candida+Psd1,1060 pg/mL
same,MIG level,[1]; Caco-2/Mono+Candida+Psd1,50.41 pg/mL
same,MIP-1a level,[1]; Caco-2/Mono+Candida+Psd1,22.02 pg/mL
same,MIP-1b level,[1]; Caco-2/Mono+Candida+Psd1,53.4 pg/mL
same,PDGF-AA level,[1]; Caco-2/Mono+Candida+Psd1,341.69 pg/mL
same,PDGF-AB/BB level,[1]; Caco-2/Mono+Candida+Psd1,805.91 pg/mL
same,RANTES level,[1]; Caco-2/Mono+Candida+Psd1,78.92 pg/mL
same,TGF-a level,[1]; Caco-2/Mono+Candida+Psd1,2.79 pg/mL
same,TNFa level,[1]; Caco-2/Mono+Candida+Psd1,33.8 pg/mL
same,TNFb level,[1]; Caco-2/Mono+Candida+Psd1,11.12 pg/mL
same,VEGFa level,[1]; Caco-2/Mono+Candida+Psd1,523.74 pg/mL
same,sCD40L level,[1]; Caco-2/Mono+Candida+Psd1,89.41 pg/mL
same,EGF level,[1]; Caco-2/Mono+Psd1,9.18 pg/mL
same,Eotaxin level,[1]; Caco-2/Mono+Psd1,4.17 pg/mL
same,FGF-2 level,[1]; Caco-2/Mono+Psd1,43.83 pg/mL
same,FLT-3L level,[1]; Caco-2/Mono+Psd1,1.29 pg/mL
same,Fractalkine level,[1]; Caco-2/Mono+Psd1,29.68 pg/mL
same,G-CSF level,[1]; Caco-2/Mono+Psd1,80.21 pg/mL
same,GM-CSF level,[1]; Caco-2/Mono+Psd1,4.74 pg/mL
same,GROa level,[1]; Caco-2/Mono+Psd1,1849 pg/mL
same,IFNa2 level,[1]; Caco-2/Mono+Psd1,18.56 pg/mL
same,IFNg level,[1]; Caco-2/Mono+Psd1,<2.23↓ pg/ml
same,IL-1RA level,[1]; Caco-2/Mono+Psd1,10.99 pg/mL
same,IL-1a level,[1]; Caco-2/Mono+Psd1,137.08 pg/mL
same,IL-1b level,[1]; Caco-2/Mono+Psd1,62.38 pg/mL
same,IL-2 level,[1]; Caco-2/Mono+Psd1,3.01 pg/mL
same,IL-3 level,[1]; Caco-2/Mono+Psd1,<0.60↓ pg/ml
same,IL-4 level,[1]; Caco-2/Mono+Psd1,2.67 pg/mL
same,IL-5 level,[1]; Caco-2/Mono+Psd1,<0.30↓ pg/ml
same,IL-6 level,[1]; Caco-2/Mono+Psd1,830.31 pg/mL
same,IL-7 level,[1]; Caco-2/Mono+Psd1,<0.38↓ pg/ml
same,IL-8 level,[1]; Caco-2/Mono+Psd1,7130 pg/mL
same,IL-9 level,[1]; Caco-2/Mono+Psd1,6.07 pg/mL
same,IL-10 level,[1]; Caco-2/Mono+Psd1,8.82 pg/mL
same,IL-12 (p40) level,[1]; Caco-2/Mono+Psd1,40.75 pg/mL
same,IL-12 (p70) level,[1]; Caco-2/Mono+Psd1,2.06 pg/mL
same,IL-13 level,[1]; Caco-2/Mono+Psd1,23.46 pg/mL
same,IL-15 level,[1]; Caco-2/Mono+Psd1,2.33 pg/mL
same,IL-17A level,[1]; Caco-2/Mono+Psd1,3.99 pg/mL
same,IL-17E/IL-25 level,[1]; Caco-2/Mono+Psd1,<18.85↓ pg/ml
same,IL-17F level,[1]; Caco-2/Mono+Psd1,<19.03↓ pg/ml
same,IL-18 level,[1]; Caco-2/Mono+Psd1,5.64 pg/mL
same,IL-22 level,[1]; Caco-2/Mono+Psd1,18.63 pg/mL
same,IL-27 level,[1]; Caco-2/Mono+Psd1,76.02 pg/mL
same,IP-10 level,[1]; Caco-2/Mono+Psd1,70.11 pg/mL
same,M-GSF level,[1]; Caco-2/Mono+Psd1,34.31 pg/mL
same,MCP-1 level,[1]; Caco-2/Mono+Psd1,9656 pg/mL
same,MCP-3 level,[1]; Caco-2/Mono+Psd1,354.38 pg/mL
same,MDC level,[1]; Caco-2/Mono+Psd1,1230 pg/mL
same,MIG level,[1]; Caco-2/Mono+Psd1,129.1 pg/mL
same,MIP-1a level,[1]; Caco-2/Mono+Psd1,26.21 pg/mL
same,MIP-1b level,[1]; Caco-2/Mono+Psd1,45.94 pg/mL
same,PDGF-AA level,[1]; Caco-2/Mono+Psd1,357.15 pg/mL
same,PDGF-AB/BB level,[1]; Caco-2/Mono+Psd1,985.45 pg/mL
same,RANTES level,[1]; Caco-2/Mono+Psd1,123.08 pg/mL
same,TGF-a level,[1]; Caco-2/Mono+Psd1,4.39 pg/mL
same,TNFa level,[1]; Caco-2/Mono+Psd1,44.58 pg/mL
same,TNFb level,[1]; Caco-2/Mono+Psd1,10.19 pg/mL
same,VEGFa level,[1]; Caco-2/Mono+Psd1,384.49 pg/mL
same,sCD40L level,[1]; Caco-2/Mono+Psd1,94.06 pg/mL
same,production of IL-4,[1]; [2],increased the production
same,"production of IL-8/CXCL8, IL-12, TNFα, G-CSF, and GM-CSF",[1]; [2],decreased inhibiting action of pathogenic fungus
same,production of IL-22,[1]; [2],statistically significantly (p < 0.05) increased
same,production of MIG/CXCL9,[1]; [2],decreased the production
same,"production of IL-2, IL-10, MDC and IL-17","[1]; Caco-2/monocytes co-culture, 2 μM apical, no Candida",statistically significant increase
same,stability to proteolysis by Candida albicans enzymes,Candida albicans enzymes,stable to proteolysis by Candida albicans enzymes

# — paper PMC10178127, “Immunomodulatory Effects of the Pea Defensin Psd1 in the Caco-2/Immune Cells Co-Culture upon Candida albicans Infection” (International Journal of Molecular Sciences, 2023)
